{
  "source": "patent US20140148500A1",
  "about": "“PROGRAMMABLE SELF-ASSEMBLED NANOSTRUCTURES BASED ON SIDECHAIN-MODIFIED PNA FOR THE MULTIVALENT DISPLAY OF LIGANDS” (priority 2010, published 2014)",
  "system": "C32 cells",
  "assay": "Cell adhesion assay, IC50 of multivalent RGD constructs (method of Sipes et al.)",
  "type": "cell-based",
  "details": "read-out: IC50 Data (nM), RGD control result in parenthesis, unnormalized, control run alongside the data point it follows",
  "from_the_text": "Multi 1 indicates one PNA construct associated with the DNA. Multi 2 indicates two PNA construct associated with the DNA and so on. […] In the constructs depicted herein, the designator in parentheses (T5, for example) represents the number of thymine bases in the DNA sequence that is inserted to create a spacer between adjacent PNA binding portions of the DNA. T0 represents the absence of any spacer thymine bases. […] “x” indicates no data is available for that experiment. […] Constructs from Example 5 were utilized herein.",
  "note": "“And” between values parts separate entries of the source, which are not always exact repeats. Identical values can stand only once.",
  "data": [
    {"smiles": "N=C(N)NCCC[C@@H]1NC(=O)[C@H](CCCCN)NC(=O)[C@@H](Cc2ccccc2)NC(=O)[C@H](CC(=O)O)NC(=O)CNC1=O", "note": "[RGD]", "values": [
      {"measurement": "IC50", "value": "475 nM and 329 nM and 690 nM"}
    ]}
  ]
}
